± gives the standard deviation of the averaged measurements.
Columns and labels:
Conditions in all cases: treatment time: 3 days
UT-SCC-81 [1] = test: relative IC50 (midpoint of the fitted curve; maximal inhibition may be below 50%); higher = less potent
Summary of the method: (§1)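 Using 384-well plates, 500 cells/well of HPV-negative HNSCC cell lines were grown on plastic, on 500 µg/mL Matrigel or Myogel coatings, or embedded in Matrigel or Myogel with rat collagen I. They were treated with compounds at five 10-fold concentrations for 3 days, and luminescence from CellTiter-Glo 2.0 was normalised to vehicle (0.1% DMSO) and cell-killing control wells. IC50, maximal inhibition and drug sensitivity score were derived from percent-inhibition dose–response curves in the FIMM pipeline.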

UT-SCC-24B [2] = test: as above
Summary of the method: as §1

UT-SCC-42A [3] = test: as above
Summary of the method: as §1

UT-SCC-14 [4] = test: as above
Summary of the method: as §1

UT-SCC-8 [5] = test: as above
Summary of the method: as §1

UT-SCC-81 [6] = test: maximal % inhibition of viability relative to DMSO; higher = stronger effect
Description: (§2)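 HNSCC cell lines (500 cells/well, 384-well) were cultured on plastic, on top of (2D) or embedded (3D) in Matrigel or human leiomyoma matrix Myogel (500 ug/mL; Myogel 3D mixed with rat collagen I). Cells were treated for 3 days with 5 ten-fold concentrations of each drug, and viability was read by CellTiter-Glo. Viability was normalised to DMSO and benzethonium chloride controls and fitted with the FIMM DSRT pipeline to give IC50 (nM), maximal % inhibition and DSS. Suffixes _1/_2/_3 are replicates. Only inhibition-mode (IC50) fits are kept.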

UT-SCC-106A = test: as above
Description: as §2

UT-SCC-40 = test: as above
Description: as §2

UT-SCC-28 = test: as above
Description: as §2

UT-SCC-42B = test: as above
Description: as §2

UT-SCC-24B [7] = test: as above
Description: as §2

UT-SCC-73 = test: as above
Description: as §2

UT-SCC-42A [8] = test: as above
Description: as §2

UT-SCC-14 [9] = test: as above
Description: as §2

UT-SCC-8 [10] = test: as above
Description: as §2

UT-SCC-44 = test: as above
Description: as §2

[11] = culture condition: embedded in Matrigel
[12] = culture condition: embedded in Myogel + collagen I
[13] = culture condition: on top of Matrigel
[14] = culture condition: plastic 2D (no matrix)
[15] = culture condition: on top of Myogel

COc1cc(F)c(F)c(Nc2ccc(I)cc2F)c1NS(=O)(=O)C1(C[C@H](O)CO)CC1 [Refametinib]
relative IC50 (UT-SCC-81 [1]; [11]): 14.2 nM
relative IC50 (UT-SCC-81 [1]; [12]): 924 nM
relative IC50 (UT-SCC-81 [1]; [13]): 61.6 nM
relative IC50 (UT-SCC-81 [1]; [14]): 850 nM
relative IC50 (UT-SCC-24B [2]; [11]): 309 nM
relative IC50 (UT-SCC-24B [2]; [12]): 808 nM
relative IC50 (UT-SCC-24B [2]; [13]): 317 nM
relative IC50 (UT-SCC-24B [2]; [15]): 1430 nM
relative IC50 (UT-SCC-24B [2]; [14]): 184 nM
relative IC50 (UT-SCC-42A [3]; [11]): 36.3 nM
relative IC50 (UT-SCC-42A [3]; [12]): 94.1 nM
relative IC50 (UT-SCC-42A [3]; [13]): 20.8 nM
relative IC50 (UT-SCC-42A [3]; [14]): 41.5 nM
relative IC50 (UT-SCC-14 [4]; [12]): 238 nM
relative IC50 (UT-SCC-14 [4]; [13]): 146 nM
relative IC50 (UT-SCC-14 [4]; [15]): 299 nM
relative IC50 (UT-SCC-8 [5]; [11]): 259 nM
relative IC50 (UT-SCC-8 [5]; [12]): 1760 nM
relative IC50 (UT-SCC-8 [5]; [13]): 410 nM
relative IC50 (UT-SCC-8 [5]; [14]): 602 nM
maximal % inhibition of viability (UT-SCC-81 [6]; [11]): 87.7 ± 0.46%
maximal % inhibition of viability (UT-SCC-81 [6]; [12]): 50.7 ± 1.9%
maximal % inhibition of viability (UT-SCC-81 [6]; [13]): 82.7 ± 0.99%
maximal % inhibition of viability (UT-SCC-81 [6]; [15]): 52 ± 3.4%
maximal % inhibition of viability (UT-SCC-81 [6]; [14]): 73.1 ± 2.5%
maximal % inhibition of viability (UT-SCC-106A; [11]): 53.7 ± 4.7%
maximal % inhibition of viability (UT-SCC-106A; [12]): 36.7 ± 3.4%
maximal % inhibition of viability (UT-SCC-106A; [13]): 66 ± 2.5%
maximal % inhibition of viability (UT-SCC-106A; [15]): 43.4 ± 3.1%
maximal % inhibition of viability (UT-SCC-106A; [14]): 67.33 ± 0.64%
maximal % inhibition of viability (UT-SCC-40; [11]): 80.9 ± 2.5%
maximal % inhibition of viability (UT-SCC-40; [12]): 76 ± 7.2%
maximal % inhibition of viability (UT-SCC-40; [13]): 75.9 ± 1.6%
maximal % inhibition of viability (UT-SCC-40; [15]): 61.23 ± 0.5%
maximal % inhibition of viability (UT-SCC-40; [14]): 63.2 ± 2.9%
maximal % inhibition of viability (UT-SCC-28; [11]): 49.8 ± 4%
maximal % inhibition of viability (UT-SCC-28; [12]): 33 ± 8.1%
maximal % inhibition of viability (UT-SCC-28; [13]): 45.1 ± 8.6%
maximal % inhibition of viability (UT-SCC-28; [14]): 23.7 ± 2%
maximal % inhibition of viability (UT-SCC-42B; [11]): 79.1 ± 7.6%
maximal % inhibition of viability (UT-SCC-42B; [13]): 64.1 ± 4.8%
maximal % inhibition of viability (UT-SCC-42B; [15]): 46.5 ± 1.5%
maximal % inhibition of viability (UT-SCC-42B; [14]): 47.5 ± 2.6%
maximal % inhibition of viability (UT-SCC-24B [7]; [11]): 72.4 ± 3.9%
maximal % inhibition of viability (UT-SCC-24B [7]; [12]): 86.3 ± 3.8%
maximal % inhibition of viability (UT-SCC-24B [7]; [13]): 72.9 ± 4.8%
maximal % inhibition of viability (UT-SCC-24B [7]; [15]): 72.2 ± 2.3%
maximal % inhibition of viability (UT-SCC-24B [7]; [14]): 84 ± 2.2%
maximal % inhibition of viability (UT-SCC-73; [11]): 85.7 ± 3.9%
maximal % inhibition of viability (UT-SCC-73; [12]): 73.4 ± 14%
maximal % inhibition of viability (UT-SCC-73; [13]): 81.8 ± 1.5%
maximal % inhibition of viability (UT-SCC-73; [15]): 72 ± 2.7%
maximal % inhibition of viability (UT-SCC-73; [14]): 75.8 ± 3.1%
maximal % inhibition of viability (UT-SCC-42A [8]; [11]): 61.2 ± 1.2%
maximal % inhibition of viability (UT-SCC-42A [8]; [12]): 42.4 ± 6.9%
maximal % inhibition of viability (UT-SCC-42A [8]; [13]): 61.9 ± 0.94%
maximal % inhibition of viability (UT-SCC-42A [8]; [15]): 48.8 ± 5.2%
maximal % inhibition of viability (UT-SCC-42A [8]; [14]): 58.8 ± 3.1%
maximal % inhibition of viability (UT-SCC-14 [9]; [11]): 62.5 ± 5.1%
maximal % inhibition of viability (UT-SCC-14 [9]; [12]): 57 ± 5.9%
maximal % inhibition of viability (UT-SCC-14 [9]; [13]): 52.9 ± 9.5%
maximal % inhibition of viability (UT-SCC-14 [9]; [15]): 52.2 ± 5.8%
maximal % inhibition of viability (UT-SCC-14 [9]; [14]): 47.7 ± 7.5%
maximal % inhibition of viability (UT-SCC-8 [10]; [11]): 88.8 ± 1.6%
maximal % inhibition of viability (UT-SCC-8 [10]; [12]): 74.1 ± 13%
maximal % inhibition of viability (UT-SCC-8 [10]; [13]): 81.7 ± 2.5%
maximal % inhibition of viability (UT-SCC-8 [10]; [15]): 73 ± 5.1%
maximal % inhibition of viability (UT-SCC-8 [10]; [14]): 80.2 ± 3.9%
maximal % inhibition of viability (UT-SCC-44; [11]): 90.4 ± 2.6%
maximal % inhibition of viability (UT-SCC-44; [12]): 55.1 ± 5%
maximal % inhibition of viability (UT-SCC-44; [13]): 73.2 ± 7%
maximal % inhibition of viability (UT-SCC-44; [15]): 56.9 ± 0.9%
maximal % inhibition of viability (UT-SCC-44; [14]): 62.2 ± 4.4%

— the supplement of paper PMC7017272
